Source: paper PMC10303271, “Synthesis and Receptor Binding Studies of α5 GABAAR Selective Novel Imidazodiazepines Targeted for Psychiatric and Cognitive Disorders” (Molecules, 2023)
Read-outs that look alike come from different tables or passages of the source.

What was measured:
MOR = target: T1, MOR (Homo sapiens, UniProt P35372); experiment: PDSP radioligand binding at MOR; conditions: 1.5 h
T1 construct: purchased NIMH Psychoactive Drug Screening Program (PDSP)
Excerpt: Opioid receptors are a family of inhibitory G-coupled protein receptors where opioids act as the ligand. The kappa opioid receptors (KOR), µ and δ opioid receptors (MOR and DOR), and nociception opioid receptor (NOP) fall under the family of opioids receptors. It has been reported that oxadiazole imidazodiazepines can mediate analgesic and anti-inflammatory properties mediated also by the κ opioid receptor (KOR). The binding at KOR is usually silent. The affinities of the test compounds for KOR, DOR, and MOR were determined using radioligand binding assays at a screening concentration of 10,000 nM in collaboration with the National Institute of Mental Health’s Psychoactive Drug Screening Program (PDSP), as mentioned before. Concentration-dependent experiments were conducted to determine Ki values for the compounds that exceeded more than 50% radioligand displacement in primary binding assays.
(§1) The NIMH PDSP assay protocol book [https://kidbdev.med.unc.edu/databases/PDSP%20Protocols%20II%202013-03-28.pdf accessed on 23 April 2023]. describes the protocols for primary and secondary radio-ligand binding assays. These assays were carried out in a final volume of 125 µL per well in the appropriate binding buffer.
(§2) The binding of a ligand to a receptor, ion channel, or transporter was determined in the […] of 10 µM of the appropriate reference compound. […] Plates were incubated in the dark for 90 min at rt, and the reactions were stopped by vacuum filtration onto 0.3% polyethyleneimine (PEI) soaked 96-well filter mats using a 96-well Filtermateharvester. This was followed by three washes with cold PBS buffer. Radioactivity was then counted on a Microbeta counter. Nonlinear regression was used to analyze the data with N = 6 replicates.

D3 = target: T2, D3 (Homo sapiens, UniProt P35462); experiment: PDSP primary binding D3; conditions: 1.5 h; primary binding, 10,000 nM; last figure of the line = mean of the 4 before it; read-out: D3, PDSP raw data, mean
T2 construct: purchased NIMH Psychoactive Drug Screening Program (PDSP)
Protocol: (§3) To determine if any off-target receptor-binding effects are present, all the novel ligands were sent to the National Institute of Mental Health (NIMH), Psychoactive Drug Screening Program (PDSP). The ligands were screened over a panel of 47 receptors, ion channels, and transporters to determine any other possible interactions with […]. The hERG-binding was also determined. […] No binding of the test compounds to calcium channels was observed. […] It is necessary to screen the compounds for hERG-binding during the early process of drug discovery. The unintentional binding of many drugs to hERG can cause blockade of hERG K+ channels in the heart, which can cause many side effects including cardiac arrhythmias and sudden death. […] All of the α5 imidazodiazepines were tested for hERG-binding.
as §1, §2

NTS1 = target: T3, NTS1 (Homo sapiens, UniProt P30989); experiment: PDSP primary binding NTS1; conditions: primary binding, 10,000 nM; last figure of the line = mean of the 4 before it; read-out: NTS1, PDSP raw data, mean
T3 construct: purchased NIMH Psychoactive Drug Screening Program (PDSP)
Protocol: as §3, §1, §2

Sigma 2 = experiment: PDSP primary binding Sigma 2; conditions: primary binding, 10,000 nM; last figure of the line = mean of the 4 before it
Protocol: as §3, §1, §2

M4 = target: T4, M4 (Homo sapiens, UniProt P08173); experiment: PDSP primary binding M4; conditions: primary binding, 10,000 nM; last figure of the line = mean of the 4 before it; read-out: M4, PDSP raw data, mean
T4 construct: purchased NIMH Psychoactive Drug Screening Program (PDSP)
T4 sequence (P08173 1-479): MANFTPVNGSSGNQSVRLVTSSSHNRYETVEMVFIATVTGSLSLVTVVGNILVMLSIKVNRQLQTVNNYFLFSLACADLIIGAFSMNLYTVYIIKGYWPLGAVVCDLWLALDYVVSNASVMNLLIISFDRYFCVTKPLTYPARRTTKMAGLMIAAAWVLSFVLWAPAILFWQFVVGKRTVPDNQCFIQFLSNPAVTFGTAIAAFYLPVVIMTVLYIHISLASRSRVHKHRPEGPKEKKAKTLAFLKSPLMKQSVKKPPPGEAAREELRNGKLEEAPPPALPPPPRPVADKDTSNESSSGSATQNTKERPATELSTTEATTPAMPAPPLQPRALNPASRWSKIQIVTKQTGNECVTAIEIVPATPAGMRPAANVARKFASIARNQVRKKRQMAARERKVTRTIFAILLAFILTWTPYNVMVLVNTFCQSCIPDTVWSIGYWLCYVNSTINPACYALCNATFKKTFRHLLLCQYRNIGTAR
Protocol: as §3, §1, §2

NMDA = experiment: PDSP primary binding NMDA; conditions: primary binding, 10,000 nM; last figure of the line = mean of the 4 before it
Protocol: as §3, §1, §2

5-HT1E = target: T5, 5-HT1E (Homo sapiens, UniProt P28566); experiment: PDSP primary binding 5-HT1E; conditions: primary binding, 10,000 nM; last figure of the line = mean of the 4 before it
T5 construct: purchased NIMH Psychoactive Drug Screening Program (PDSP)
Protocol: as §3, §1, §2

5-HT2A = target: T6, 5-HT2A (Homo sapiens, UniProt P28223); experiment: PDSP primary binding 5-HT2A; conditions: 1.5 h; primary binding, 10,000 nM; last figure of the line = mean of the 4 before it; read-out: 5-HT2A, PDSP raw data, mean
T6 construct: purchased NIMH Psychoactive Drug Screening Program (PDSP)
Protocol: as §3, §1, §2

Alpha2A = target: T7, Alpha2A (Homo sapiens, UniProt P08913); experiment: PDSP primary binding Alpha2A; conditions: 1.5 h; primary binding, 10,000 nM; last figure of the line = mean of the 4 before it; read-out: Alpha2A, PDSP raw data, mean
T7 construct: purchased NIMH Psychoactive Drug Screening Program (PDSP)
T7 sequence (P08913 1-465): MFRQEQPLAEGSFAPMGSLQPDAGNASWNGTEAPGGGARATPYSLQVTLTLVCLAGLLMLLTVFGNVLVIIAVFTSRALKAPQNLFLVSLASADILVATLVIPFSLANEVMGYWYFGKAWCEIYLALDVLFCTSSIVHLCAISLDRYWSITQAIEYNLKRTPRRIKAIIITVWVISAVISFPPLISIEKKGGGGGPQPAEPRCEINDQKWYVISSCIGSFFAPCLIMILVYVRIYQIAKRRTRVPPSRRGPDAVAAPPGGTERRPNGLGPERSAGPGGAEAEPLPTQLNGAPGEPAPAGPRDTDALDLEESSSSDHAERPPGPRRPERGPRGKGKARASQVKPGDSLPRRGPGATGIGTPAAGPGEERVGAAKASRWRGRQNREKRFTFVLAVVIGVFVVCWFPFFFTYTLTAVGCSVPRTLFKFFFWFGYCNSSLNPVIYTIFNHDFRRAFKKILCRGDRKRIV
Protocol: as §3, §1, §2

[1] = at 10,000 nM, N = 5, [3H]-DAMGO 1.20 nM, read-out: Primary Binding %MOR
[2] = primary binding, 10,000 nM, last figure of the line = mean of the 4 before it, read-out: MOR, PDSP raw data, mean

T2 sequence (P35462 whole entry): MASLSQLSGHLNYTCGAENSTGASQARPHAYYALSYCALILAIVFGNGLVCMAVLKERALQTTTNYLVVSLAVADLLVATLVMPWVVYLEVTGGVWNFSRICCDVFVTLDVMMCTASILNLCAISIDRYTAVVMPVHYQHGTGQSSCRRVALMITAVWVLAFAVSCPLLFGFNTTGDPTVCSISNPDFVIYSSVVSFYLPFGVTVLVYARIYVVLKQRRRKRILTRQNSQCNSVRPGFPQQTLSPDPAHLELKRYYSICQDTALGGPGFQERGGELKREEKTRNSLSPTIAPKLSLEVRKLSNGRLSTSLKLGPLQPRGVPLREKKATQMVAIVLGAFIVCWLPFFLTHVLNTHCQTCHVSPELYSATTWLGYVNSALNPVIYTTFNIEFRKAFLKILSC
T1 sequence (P35372 whole entry): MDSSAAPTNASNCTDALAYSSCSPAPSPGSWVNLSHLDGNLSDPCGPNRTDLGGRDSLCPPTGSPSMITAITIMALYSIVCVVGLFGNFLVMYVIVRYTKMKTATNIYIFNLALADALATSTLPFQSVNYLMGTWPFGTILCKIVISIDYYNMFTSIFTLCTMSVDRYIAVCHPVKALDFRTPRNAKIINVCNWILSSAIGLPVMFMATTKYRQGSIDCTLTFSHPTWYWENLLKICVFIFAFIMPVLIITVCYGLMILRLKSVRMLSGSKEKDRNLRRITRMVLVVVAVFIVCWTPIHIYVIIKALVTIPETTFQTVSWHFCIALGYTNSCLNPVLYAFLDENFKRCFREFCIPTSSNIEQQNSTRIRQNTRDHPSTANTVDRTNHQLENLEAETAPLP
T6 sequence (P28223 whole entry): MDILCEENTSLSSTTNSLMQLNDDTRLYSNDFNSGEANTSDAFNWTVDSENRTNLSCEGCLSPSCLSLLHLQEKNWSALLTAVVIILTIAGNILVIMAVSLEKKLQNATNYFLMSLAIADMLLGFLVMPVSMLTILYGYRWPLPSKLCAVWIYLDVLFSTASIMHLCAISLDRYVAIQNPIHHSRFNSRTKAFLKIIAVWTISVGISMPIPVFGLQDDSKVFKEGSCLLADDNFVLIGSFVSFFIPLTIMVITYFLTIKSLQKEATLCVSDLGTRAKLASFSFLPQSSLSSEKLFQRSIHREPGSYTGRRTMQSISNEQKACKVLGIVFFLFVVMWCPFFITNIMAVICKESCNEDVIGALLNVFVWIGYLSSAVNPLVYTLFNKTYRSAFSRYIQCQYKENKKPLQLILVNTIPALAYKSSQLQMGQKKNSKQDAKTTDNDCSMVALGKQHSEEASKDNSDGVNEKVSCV
T3 sequence (P30989 whole entry): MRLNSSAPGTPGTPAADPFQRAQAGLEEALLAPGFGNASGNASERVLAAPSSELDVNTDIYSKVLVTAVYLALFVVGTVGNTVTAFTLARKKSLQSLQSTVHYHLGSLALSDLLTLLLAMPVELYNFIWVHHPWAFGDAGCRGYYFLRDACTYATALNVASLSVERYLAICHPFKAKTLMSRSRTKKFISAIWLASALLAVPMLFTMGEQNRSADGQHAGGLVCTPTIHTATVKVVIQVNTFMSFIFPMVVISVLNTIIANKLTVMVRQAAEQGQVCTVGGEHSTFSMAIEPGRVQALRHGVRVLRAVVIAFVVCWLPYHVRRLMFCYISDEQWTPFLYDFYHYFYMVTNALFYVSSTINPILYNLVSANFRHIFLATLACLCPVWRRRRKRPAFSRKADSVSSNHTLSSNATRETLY
T5 sequence (P28566 whole entry): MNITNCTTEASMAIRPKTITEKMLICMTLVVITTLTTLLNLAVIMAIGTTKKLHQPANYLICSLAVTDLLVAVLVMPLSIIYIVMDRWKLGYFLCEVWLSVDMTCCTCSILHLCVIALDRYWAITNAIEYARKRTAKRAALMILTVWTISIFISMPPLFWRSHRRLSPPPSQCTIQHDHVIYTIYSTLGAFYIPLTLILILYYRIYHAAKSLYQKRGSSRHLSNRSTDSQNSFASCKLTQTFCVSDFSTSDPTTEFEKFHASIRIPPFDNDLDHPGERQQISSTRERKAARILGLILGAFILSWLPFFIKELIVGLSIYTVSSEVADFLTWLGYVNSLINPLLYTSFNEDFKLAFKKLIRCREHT

Compound	inhibition at 10 µM (MOR; [1]) [%]	inhibition at 10 µM (MOR; [2]) [%]	inhibition at 10 µM (D3) [%]	inhibition at 10 µM (NTS1) [%]	Sigma 2, PDSP raw data, mean (Sigma 2) [%]	inhibition at 10 µM (M4) [%]	NMDA, PDSP raw data, mean (NMDA) [%]	5-HT1E, PDSP raw data, mean (5-HT1E) [%]	inhibition at 10 µM (5-HT2A) [%]	inhibition at 10 µM (Alpha2A) [%]
CC(C)c1noc(-c2ncn3c2[C@@H](C)N=C(c2ccccc2F)c2cc(Cl)ccc2-3)n1 [Compound 37, (R)-5-(8-Chloro-6-(2′-fluorophenyl)-4-methyl-4H-benzo[f]imidazo[1,5-a][1,4]diazepin-3-yl)-3-isopropyl-1,2,4-oxadiazole]	48.6 ± 4.17	48.6	-0.7	-16.3	76.17	-4.01	54.13	-14.78	14.1	22.8
C[C@H]1N=C(c2ccccc2F)c2cc(Cl)ccc2-n2cnc(-c3nc(C4CC4)no3)c21 [Compound 38, (R)-5-(8-Chloro-6-(2′-fluorophenyl)-4-methyl-4H-benzo[f]imidazo[1,5-a][1,4]diazepin-3-yl)-3-cyclopropyl-1,2,4-oxadiazole]	30.2 ± 6.46	30.2	-0.07	-13.2	80.86	-8.66	65.22	-22.45	11.6	15.6
C#Cc1ccc2c(c1)C(c1ccccc1Cl)=N[C@H](C)c1c(C(=O)NC)ncn1-2 [Compound 21, (R)-6-(2′-Chlorophenyl)-8-ethynyl-N,4-dimethyl-4H-benzo[f]imidazo[1,5-a][1,4]diazepine-3-carboxamide]	-3.57 ± 7.68	-3.57	6.19	-25.2	1.04	-16.9	77.15	7.75	-7.9	-1.1
C#Cc1ccc2c(c1)C(c1ccccc1Cl)=N[C@H](C)c1c(C(=O)N(C)CC)ncn1-2 [Compound 29]	7.31 ± 9.54	7.31	13	-19.5	13.69	4.91	98.03	19.25	-3.89	7.96
CCc1noc(-c2ncn3c2[C@@H](C)N=C(c2ccccc2F)c2cc(C4CC4)ccc2-3)n1 [Compound 46, (R)-5-(8-Cyclopropyl-6-(2′-fluorophenyl)-4-methyl-4H-benzo[f]imidazo[1,5-a][1,4]diazepin-3-yl)-3-ethyl-1,2,4-oxadiazole]		25.1	27.8	-29.8	89.78	-0.8	66.04	-18.76	23.6	29.2
CCc1noc(-c2ncn3c2CN=C(c2ccccc2F)c2cc(C4CC4)ccc2-3)n1 [Compound 44, 5-(8-Cyclopropyl-6-(2′-fluorophenyl)-4H-benzo[f]imidazo[1,5-a][1,4]diazepin-3-yl)-3-ethyl-1,2,4-oxadiazole]	26.4 ± 6.01	26.4	16.1	-62.2	74.98	-4.92	20.03	11.75	21.2	14.4
CCc1noc(-c2ncn3c2[C@@H](C)N=C(c2ccccc2F)c2cc(Cl)ccc2-3)n1 [Compound 36, (R)-5-(8-Chloro-6-(2′-fluorophenyl)-4-methyl-4H-benzo[f]imidazo[1,5-a][1,4]diazepin-3-yl)-3-ethyl-1,2,4-oxadiazole]	19.2 ± 5.47	19.2	4.97	-16.9	81.41	-5.41	55.6	5.28	11.1	-14.4
CCc1noc(-c2ncn3c2[C@@H](C)N=C(c2ccccc2F)c2cc(-c4ccccc4)ccc2-3)n1 [Compound 35, (R)-3-Ethyl-5-(6-(2′-fluorophenyl)-4-methyl-8-phenyl-4H-benzo[f]imidazo[1,5-a][1,4]diazepin-3-yl)-1,2,4-oxadiazole]	14.8 ± 6.32	14.8	16.2	-32.6	85.36	-4.16	37.76	5.88	32.3	34.5
C#Cc1ccc2c(c1)C(c1ccccc1F)=N[C@H](C)c1c(C(=S)N(C)C)ncn1-2 [Compound 33, (R)-8-Ethynyl-6-(2′-fluorophenyl)-N,N,4-trimethyl-4H-benzo[f]imidazo[1,5-a][1,4]diazepine-3-carbothioamide]	-2.4 ± 5.72	-11.2	-3.57	-16.7	43.63	-3.29	43.17	34.07	10.7	5.99
C#Cc1ccc2c(c1)C(c1ccccn1)=N[C@@H](C)c1c(C(=O)NC)ncn1-2 [Compound 23, (S)-8-Ethynyl-N,4-dimethyl-6-(pyridin-2′-yl)-4H-benzo[f]imidazo[1,5-a][1,4]diazepine-3-carboxamide]	5.24 ± 10.7	5.24	7.31	-5.89	8.85	2.93	89.17	19.33	-0.6	5.8
